According to the NIST ThermoML archive (doi:10.1021/je0496950):
Numbers after ± are expanded uncertainties.

Assay: mn = molality of the nth substance listed, in mol/kg
Settings: 101 kPa, Liquid; for speed of sound: Pulse-echo method

Compound: [Cu+2].[O-][Cl+3]([O-])([O-])[O-].[O-][Cl+3]([O-])([O-])[O-] [copper perchlorate] + CC#N
- mass density (288.13 K, m1 = 0.0572): 798.765 ± 0.72 kg/m3
- mass density (288.13 K, m1 = 0.1013): 807.682 ± 0.71 kg/m3
- mass density (288.13 K, m1 = 0.1335): 814.263 ± 0.71 kg/m3
- mass density (288.13 K, m1 = 0.1645): 820.66 ± 0.7 kg/m3
- mass density (288.13 K, m1 = 0.1975): 827.568 ± 0.69 kg/m3
- mass density (288.13 K, m1 = 0.2264): 833.698 ± 0.69 kg/m3
- mass density (288.13 K, m1 = 0.258): 840.493 ± 0.68 kg/m3
- mass density (288.13 K, m1 = 0.285): 846.334 ± 0.67 kg/m3
- mass density (288.13 K, m1 = 0.3172): 853.453 ± 0.67 kg/m3
- mass density (293.15 K, m1 = 0.0572): 793.409 ± 0.73 kg/m3
- mass density (293.15 K, m1 = 0.1013): 802.334 ± 0.72 kg/m3
- mass density (293.15 K, m1 = 0.1335): 808.919 ± 0.71 kg/m3
- mass density (293.15 K, m1 = 0.1645): 815.323 ± 0.71 kg/m3
- mass density (293.15 K, m1 = 0.1975): 822.238 ± 0.7 kg/m3
- mass density (293.15 K, m1 = 0.2264): 828.373 ± 0.69 kg/m3
- mass density (293.15 K, m1 = 0.258): 835.168 ± 0.69 kg/m3
- mass density (293.15 K, m1 = 0.285): 841.014 ± 0.68 kg/m3
- mass density (293.15 K, m1 = 0.3172): 848.137 ± 0.67 kg/m3
- speed of sound (298.15 K, m1 = 0.05724): 1281.6 ± 1.4 m/s
- speed of sound (298.15 K, m1 = 0.1013): 1284.3 ± 1.4 m/s
- speed of sound (298.15 K, m1 = 0.1335): 1286.2 ± 1.4 m/s
- speed of sound (298.15 K, m1 = 0.1645): 1288.2 ± 1.4 m/s
- speed of sound (298.15 K, m1 = 0.1975): 1290 ± 1.4 m/s
- speed of sound (298.15 K, m1 = 0.2264): 1291.8 ± 1.4 m/s
- speed of sound (298.15 K, m1 = 0.258): 1293.7 ± 1.4 m/s
- speed of sound (298.15 K, m1 = 0.285): 1295.4 ± 1.4 m/s
- speed of sound (298.15 K, m1 = 0.3172): 1297.3 ± 1.4 m/s
- mass density (298.15 K, m1 = 0.0572): 788.03 ± 0.74 kg/m3
- mass density (298.15 K, m1 = 0.1013): 796.961 ± 0.73 kg/m3
- mass density (298.15 K, m1 = 0.1335): 803.556 ± 0.72 kg/m3
- mass density (298.15 K, m1 = 0.1645): 809.967 ± 0.71 kg/m3
- mass density (298.15 K, m1 = 0.1975): 816.887 ± 0.71 kg/m3
- mass density (298.15 K, m1 = 0.2264): 823.028 ± 0.7 kg/m3
- mass density (298.15 K, m1 = 0.258): 829.828 ± 0.69 kg/m3
- mass density (298.15 K, m1 = 0.285): 835.678 ± 0.69 kg/m3
- mass density (298.15 K, m1 = 0.3172): 842.806 ± 0.68 kg/m3
- mass density (303.15 K, m1 = 0.0572): 782.624 ± 0.75 kg/m3
- mass density (303.15 K, m1 = 0.1013): 791.568 ± 0.74 kg/m3
- mass density (303.15 K, m1 = 0.1335): 798.17 ± 0.73 kg/m3
- mass density (303.15 K, m1 = 0.1645): 804.588 ± 0.72 kg/m3
- mass density (303.15 K, m1 = 0.1975): 811.516 ± 0.71 kg/m3
- mass density (303.15 K, m1 = 0.2264): 817.66 ± 0.71 kg/m3
- mass density (303.15 K, m1 = 0.258): 824.467 ± 0.7 kg/m3
- mass density (303.15 K, m1 = 0.285): 830.323 ± 0.69 kg/m3
- mass density (303.15 K, m1 = 0.3172): 837.456 ± 0.69 kg/m3
- mass density (308.15 K, m1 = 0.0572): 777.19 ± 0.76 kg/m3
- mass density (308.15 K, m1 = 0.1013): 786.147 ± 0.74 kg/m3
- mass density (308.15 K, m1 = 0.1335): 792.754 ± 0.73 kg/m3
- mass density (308.15 K, m1 = 0.1645): 799.184 ± 0.73 kg/m3
- mass density (308.15 K, m1 = 0.1975): 806.117 ± 0.72 kg/m3
- mass density (308.15 K, m1 = 0.2264): 812.272 ± 0.71 kg/m3
- mass density (308.15 K, m1 = 0.258): 819.083 ± 0.7 kg/m3
- mass density (308.15 K, m1 = 0.285): 824.946 ± 0.7 kg/m3
- mass density (308.15 K, m1 = 0.3172): 832.084 ± 0.69 kg/m3
- mass density (313.15 K, m1 = 0.0572): 771.728 ± 0.76 kg/m3
- mass density (313.15 K, m1 = 0.1013): 780.696 ± 0.75 kg/m3
- mass density (313.15 K, m1 = 0.1335): 787.314 ± 0.74 kg/m3
- mass density (313.15 K, m1 = 0.1645): 793.753 ± 0.73 kg/m3
- mass density (313.15 K, m1 = 0.1975): 800.692 ± 0.73 kg/m3
- mass density (313.15 K, m1 = 0.2264): 806.857 ± 0.72 kg/m3
- mass density (313.15 K, m1 = 0.258): 813.673 ± 0.71 kg/m3
- mass density (313.15 K, m1 = 0.285): 819.544 ± 0.7 kg/m3
- mass density (313.15 K, m1 = 0.3172): 826.687 ± 0.7 kg/m3
- mass density (323.15 K, m1 = 0.0572): 760.698 ± 0.78 kg/m3
- mass density (323.15 K, m1 = 0.1013): 769.697 ± 0.77 kg/m3
- mass density (323.15 K, m1 = 0.1335): 776.342 ± 0.76 kg/m3
- mass density (323.15 K, m1 = 0.1645): 782.802 ± 0.75 kg/m3
- mass density (323.15 K, m1 = 0.1975): 789.754 ± 0.74 kg/m3
- mass density (323.15 K, m1 = 0.2264): 795.939 ± 0.73 kg/m3
- mass density (323.15 K, m1 = 0.258): 802.774 ± 0.72 kg/m3
- mass density (323.15 K, m1 = 0.285): 808.66 ± 0.72 kg/m3
- mass density (323.15 K, m1 = 0.3172): 815.817 ± 0.71 kg/m3
